In patent US10306886B2, “Lactam solubility” (Conopco, Inc., priority 2015, dated 2019):

Assay: Lactam solubility in water or water+alcohol (48 hours agitation, filtration, HPLC quantification)
Assay type: physicochemical
Parameters: key to Solubility Increase vs water alone: fold increase in dissolved lactam relative to water alone
Method: Excess solid lactam (˜3 mg) was placed in a Whatman® Mini Uniprep sample vial, fitted with a 0.45 μm nylon filter. Water or water+alcohol (500 μL) was added the mixture shaken and tapped briefly to initially disperse the solid and the mixture then agitated for 48 hours using a plate shaker fitted with a vial holder (see image below). After 48 hours, the solid was removed from the system by pressing down the plunger with integral filter on the vial (see image below). This removes the solid and provides filtered solution within the inner chamber which is then ready for analysis.
The level of lactam dissolved in solution was quantified using HPLC analysis. Samples were analysed on an Agilent 1200® series HPLC fitted with a Thermo Hypersil® Gold C18 column (15×2.1×3 μm), isocratic elution with 60/40 methanol/water (+0.1% Formic Acid), 0.4 mL/min flow rate, using a DAD detector at 285 nm. 4-(4-chlorophenyl)-5-methylene-pyrrol-2-one has a retention time of ˜2.8 minutes.
The absolute level of lactam in solution is measured and reported as an increase in solubility of lactam relative to water alone.

## C=C1NC(=O)C=C1c1ccc(Cl)cc1 [4-(4-chlorophenyl)-5-methylene-pyrrol-2-one]
EtOH 0% in water
  Mean Lactam Level in Solution: 6.2 ppm
  Solubility Increase vs water alone: 1.00
EtOH 0.5% in water
  Mean Lactam Level in Solution: 7.9 ppm
  Solubility Increase vs water alone: 1.27
EtOH 1% in water
  Mean Lactam Level in Solution: 8.9 ppm
  Solubility Increase vs water alone: 1.44
EtOH 2% in water
  Mean Lactam Level in Solution: 10.7 ppm
  Solubility Increase vs water alone: 1.73
EtOH 5% in water
  Mean Lactam Level in Solution: 13.4 ppm
  Solubility Increase vs water alone: 2.16
EtOH 10% in water
  Mean Lactam Level in Solution: 18.3 ppm
  Solubility Increase vs water alone: 2.95
EtOH 25% in water
  Mean Lactam Level in Solution: 82.1 ppm
  Solubility Increase vs water alone: 13.24
EtOH 50% in water
  Mean Lactam Level in Solution: 1800.2 ppm
  Solubility Increase vs water alone: 290.35
Glycerol 0% in water
  Mean Lactam Level in Solution: 5.7 ppm
  Solubility Increase vs water alone: 1.00
Glycerol 0.5% in water
  Mean Lactam Level in Solution: 1.7 ppm
  Solubility Increase vs water alone: 0.29
Glycerol 1% in water
  Mean Lactam Level in Solution: 2.3 ppm
  Solubility Increase vs water alone: 0.41
Glycerol 2% in water
  Mean Lactam Level in Solution: 3.1 ppm
  Solubility Increase vs water alone: 0.54
Glycerol 5% in water
  Mean Lactam Level in Solution: 5.2 ppm
  Solubility Increase vs water alone: 0.91
Glycerol 10% in water
  Mean Lactam Level in Solution: 9.0 ppm
  Solubility Increase vs water alone: 1.59
Glycerol 25% in water
  Mean Lactam Level in Solution: 15.8 ppm
  Solubility Increase vs water alone: 2.77
Glycerol 50% in water
  Mean Lactam Level in Solution: 95.3 ppm
  Solubility Increase vs water alone: 16.72
MeOH 0% in water
  Mean Lactam Level in Solution: 6.2 ppm
  Solubility Increase vs water alone: 1.00
MeOH 0.5% in water
  Mean Lactam Level in Solution: 7.5 ppm
  Solubility Increase vs water alone: 1.20
MeOH 1% in water
  Mean Lactam Level in Solution: 9.0 ppm
  Solubility Increase vs water alone: 1.45
MeOH 2% in water
  Mean Lactam Level in Solution: 8.2 ppm
  Solubility Increase vs water alone: 1.32
MeOH 5% in water
  Mean Lactam Level in Solution: 10.4 ppm
  Solubility Increase vs water alone: 1.67
MeOH 10% in water
  Mean Lactam Level in Solution: 15.7 ppm
  Solubility Increase vs water alone: 2.52
MeOH 25% in water
  Mean Lactam Level in Solution: 48.8 ppm
  Solubility Increase vs water alone: 7.87
MeOH 50% in water
  Mean Lactam Level in Solution: 315.6 ppm
  Solubility Increase vs water alone: 50.90
